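Method: 48-hour compound exposure of cells in 96-well plates, five concentrations, linear interpolation of endpoints. TGI denotes the concentration required for complete inhibition of growth.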
Legend:
Assay in all cases: DTP human tumour cell line panel, 48 h
786-0 renal = tested on: 786-0 renal
DLD-1 colon = tested on: DLD-1 colon
DMS 114 small cell lung = tested on: DMS 114 small cell lung
HOP-18 NSCLC = tested on: HOP-18 NSCLC
KM20L2 colon = tested on: KM20L2 colon
LXFL 529 NSCLC = tested on: LXFL 529 NSCLC
M19-MEL melanoma = tested on: M19-MEL melanoma
OVCAR-3 ovarian = tested on: OVCAR-3 ovarian
RXF 393 renal = tested on: RXF 393 renal
RXF-631 renal = tested on: RXF-631 renal
SK-MEL-5 melanoma = tested on: SK-MEL-5 melanoma
SNB-78 CNS = tested on: SNB-78 CNS
SR leukemia = tested on: SR leukemia
XF 498 CNS = tested on: XF 498 CNS
DMS 273 small cell lung = tested on: DMS 273 small cell lung

SMILES	TGI (786-0 renal)	TGI (DLD-1 colon)	TGI (DMS 114 small cell lung)	TGI (HOP-18 NSCLC)	TGI (KM20L2 colon)	TGI (LXFL 529 NSCLC)	TGI (M19-MEL melanoma)	TGI (OVCAR-3 ovarian)	TGI (RXF 393 renal)	TGI (RXF-631 renal)	TGI (SK-MEL-5 melanoma)	TGI (SNB-78 CNS)	TGI (SR leukemia)	TGI (XF 498 CNS)	TGI (DMS 273 small cell lung)
FC(F)(F)c1nc2c(ccc3[nH]c4c(-c5ccccc5)nccc4c32)[nH]1	> 100 µM	> 100 µM	> 61 µM	> 100 µM	> 100 µM	> 100 µM	> 100 µM	> 100 µM	> 100 µM	> 100 µM	> 100 µM	> 100 µM	40.7 µM	> 100 µM	–
COc1cc(CO)cc2c1[nH]c1ccccc12	> 25 µM	> 25 µM	> 25 µM	> 25 µM	> 25 µM	> 25 µM	> 25 µM	> 25 µM	> 25 µM	–	> 25 µM	> 25 µM	> 25 µM	> 25 µM	> 25 µM
Cc1ccc([N+](=O)[O-])cc1NC(=O)/C(CC(=O)c1sc(C(N)=S)nc1C)=N\N	> 100 µM	> 100 µM	> 100 µM	> 100 µM	> 100 µM	> 100 µM	> 100 µM	80.7 µM	> 100 µM	> 100 µM	> 100 µM	> 100 µM	> 100 µM	–	> 100 µM
C[C@@H]1C[C@@H]2C(=O)N(c3ccccc3)C(=O)[C@@H]2c2[nH]c3ccc(Br)cc3c21	> 100 µM	> 100 µM	> 100 µM	62.4 µM	> 100 µM	> 100 µM	> 100 µM	51.7 µM	78.5 µM	> 100 µM	> 100 µM	71 µM	> 100 µM	81.3 µM	> 100 µM
